# Literature values in US6713504B2, “Antifungal molecule 2-(3,4-dimethyl-2,5-dihydro-1H-pyrrol-2-yl)-1-methylethyl pentanoate” (Council of Scientific & Industrial Research, priority 2002, dated 2004).
# Conditions: amphotericin B and its liposomal derivatives; reported by Zager 2000; cited from earlier work
smiles,measurement,value
C[C@@H]1[C@H](O)[C@@H](C)/C=C/C=C/C=C/C=C/C=C/C=C/C=C/[C@H](O[C@@H]2O[C@H](C)[C@@H](O)[C@H](N)[C@@H]2O)C[C@@H]2O[C@](O)(C[C@@H](O)C[C@@H](O)[C@H](O)CC[C@@H](O)C[C@@H](O)CC(=O)O[C@H]1C)C[C@H](O)[C@H]2C(=O)O [amphotericin B],CT50,4.0 to 64.0 µg/mL
